How the values were obtained:
blood sugar-level = settings: Land et al. 1975; cited from earlier work
serum lipid = settings: Kupiecki et al. 1968; cited from earlier work
hypertriglyceridemia = assay: Pharmacological test against hypertriglyceridemia (fructose-induced); type: in vivo; settings: serum, male SD rats, oral 3 times, 300 mg/kg as free carboxylic acid, after 48 hours, 10% fructose
Method: (i) Pharmacological test against hypertriglyceridemia:
The groups were made to be hypertriglyceridemia by giving an aqueous 10% by weight solution of fructose for 2 days, those of control group being given tap water. The administration of six kinds of the present derivatives and of nicotinic acid was as follows:
Each specimen of the present pyrazole derivatives and nicotinic acid was dissolved or dispersed into an aqueous 1% solution of carboxymethylcellulose (CMC) at a predetermined concentration, and the thus prepared solution or dispersion was orally administered 3 times in the volume of 0.5 ml/100 g body weight, that is, first dose just after the commencement of the present test, second dose after 24 hours of the first administration and third dose after 18 hours of the second administration. The dose of each compound was set so that each animal intaked 300 mg/kg of each compound as free carboxylic acid. The rats of control group were given the aqueous 1% solution of CMC only three times at the same intervals as the test groups. All the groups were fed with the same diet during the test period.
After 48 hours of the commencement of the test, blood sample was collected from each animal by amputation of the carotid artery, and serum was separated from the blood sample and frozen to be kept until lipid analysis.
Serum triglyceride was determined by Acetylacetone Method, and the reduction percentage of lipid was calculated by the following formula: [formula] wherein the amount is the average of the group.
Analysis for serum cholesterol:
The content of serum cholesterol was determined by an enzymatic method using cholesteroloxidase, and the reduction percentage of cholesterol was calculated by the following formula: [formula]

hypercholesterolemia = assay: Pharmacological test against hypercholesterolemia (high cholesterol diet); type: in vivo; settings: male SD rats, oral 200 mg/kg/day for 7 days; for Reduction Percentage, Cholesterol in beta-lipoprotein: heparin-calcium precipitation
Excerpt: (ii) Pharmacological test against hypercholesterolemia:
Three groups of male SD rats each weighing ca. 150 g, each group consisting of five rats were used as the test animals and one group consisting of 10 rats was used as control. All animals were fed a high cholesterol diet consisted of 1% cholesterol, 0.2% sodium cholate, 5% olive oil and commercial diet up to total 100% for 7 days. The test compounds of the present invention and clofibrate, as a medicine for comparison, were respectively dissolved or dispersed in an aqueous 1% solution of CMC so that the volume of the solution or dispersion administered to each animal was 0.5 ml/100 g body weight/time, and the solution or dispersion was orally administered so that the amount of administration of each of the present pyrazole derivative or clofibrate was 200 mg/kg body weight/time. Actually, the administration was carried out once a day for 7 consecutive days. Water was taken ad lib. After 20 hours of fasting from the last administration, blood sample was taken by amputation of the carotid artery and the serum separated was frozen until the analysis of cholesterol shown as follows:
The content of serum cholesterol was determined by the above-mentioned method. The beta-lipoprotein-cholesterol was determined by "heparin-calcium precipitation method". The reduction percentages of cholesterol in serum and beta-lipoprotein were calculated in the same manner as above.

patients = settings: administration to patients; cited from earlier work

For Cc1cc(C(=O)O)n[nH]1 [5-Methylpyrazol-3-carboxylic acid], the “clinical effect in treatment of hyperlipemia” value (blood sugar-level) is given as “uncertainty of the derivative's clinical effect in treatment of hyperlipemia”, the “side effect on blood sugar level” value (blood sugar-level) is given as “causing the reduction of blood sugar-level” and the “activity to reduce the level of serum lipid” value (serum lipid) is given as “activity to reduce the level of serum lipid”.
In the case of CCCCCCCc1cc(C(=O)O)n[nH]1 [5-n-heptylpyrazole-3-carboxylic acid], the “Reduction Percentage, Cholesterol” value (hypertriglyceridemia) is reported as 12.5% and the “Reduction Percentage, Triglyceride” value (hypertriglyceridemia) is reported as 40.6%.
In the case of CCCCCCCCCc1cc(C(=O)O)n[nH]1 [5-n-nonylpyrazole-3-carboxylic acid], the “Reduction Percentage, Cholesterol” value (hypertriglyceridemia) is reported as 12.2%, the “Reduction Percentage, Triglyceride” value (hypertriglyceridemia) is reported as 66.5% and the “Reduction Percentage, Cholesterol in serum” value (hypercholesterolemia) is reported as 11.1%. The “Reduction Percentage, Cholesterol in beta-lipoprotein” value (hypercholesterolemia) was 0.6%.
For CCCCCCCCCCCc1cc(C(=O)O)n[nH]1 [5-n-undecylpyrazole-3-carboxylic acid], the “Reduction Percentage, Cholesterol” value (hypertriglyceridemia) was 40.0%, the “Reduction Percentage, Triglyceride” value (hypertriglyceridemia) was 69.1% and the “Reduction Percentage, Cholesterol in serum” value (hypercholesterolemia) was 22.8%. The “Reduction Percentage, Cholesterol in beta-lipoprotein” value (hypercholesterolemia) was 20.1%.
In the case of CCOC(=O)C(C)(C)Oc1ccc(Cl)cc1 [Clofibrate, reference compound], the side effects (patients) is given as “causes the diseases in the bile duct system and is in danger of causing cancer”, the “Reduction Percentage, Cholesterol in serum” value (hypercholesterolemia) is given as -3.5% and the “Reduction Percentage, Cholesterol in beta-lipoprotein” value (hypercholesterolemia) is given as -2.0%.
For CCCCCCCc1cc(C(=O)OCC)n[nH]1 [Ethyl 5-n-heptylpyrazole-3-carboxylate, ethyl 5-n-heptylpyrazole-3-carboxylate], the “Reduction Percentage, Cholesterol” value (hypertriglyceridemia) was 2.1% and the “Reduction Percentage, Triglyceride” value (hypertriglyceridemia) was 41.1%.
With CCCCCCCCCc1cc(C(=O)OCC)n[nH]1 [Ethyl 5-n-nonylpyrazole-3-carboxylate, ethyl 5-n-nonylpyrazole-3-carboxylate] the “Reduction Percentage, Cholesterol” value (hypertriglyceridemia) was 29.5% and the “Reduction Percentage, Triglyceride” value (hypertriglyceridemia) was 63.1%.
In the case of CCCCCCCCCCCc1cc(C(=O)OCC)n[nH]1 [Ethyl 5-n-undecylpyrazole-3-carboxylate, ethyl 5-n-undecylpyrazole-3-carboxylate], the “Reduction Percentage, Cholesterol” value (hypertriglyceridemia) is reported as 53.1% and the “Reduction Percentage, Triglyceride” value (hypertriglyceridemia) is reported as 83.7%.
In the case of O=C(O)c1cccnc1 [nicotinic acid, reference compound], the side effects (patients) is given as “causing flushing or eruptions on the face and skin”, the “Reduction Percentage, Cholesterol” value (hypertriglyceridemia) is given as 16.4% and the “Reduction Percentage, Triglyceride” value (hypertriglyceridemia) is given as 24.1%.

Reference: patent US4323576A, “Derivatives of pyrazole for use in therapy” (Morishita Pharmaceutical Co., Ltd., priority 1979, dated 1982)
